These results are taken from patent US10301261B2, “Substituted indoles as modulators of ROR-gamma” (Vitae Pharmaceuticals, LLC, priority 2015, dated 2019).

The target in assay [1] is full-length RORγt in Jurkat cells (Homo sapiens (Human), UniProt P51449). Nature of the assay: RORγt 5×RORE Assay in Jurkat Cells (Assay 2). In kind it is cell-based. The settings on record: RORγt 5×RORE Nanoluc reporter. The protocol: [formula] RORγt 5×RORE Assay in Jurkat Cells (Assay 2)
Compounds described herein were tested for RORγ inverse agonist activity in a cell-based, transcriptional activity assay. […] (Promega, Cat. # N1021) using KpnI and HindIII restriction sites. […] Tested compounds were added to the cells in the same media (final concentration of DMSO was 0.1% (v/v)), and the plates were incubated at 37° C./5% CO2 for 16-18 hrs. Luciferase activity in the conditioned supernatants was determined with NanoGlo® assay reagents (Promega, Cat.# N1130).

The target of assay [2] is recombinant RORγ Ligand Binding Domain (LBD) protein (Homo sapiens (Human), UniProt P51449). Nature of the assay: Radio-Ligand RORγ Binding Assay (Assay 1). The settings on record: radio-ligand 25-hydroxy [26,27-3H]-cholesterol competition. The protocol:
Radio-Ligand RORγ Binding Assay (Assay 1)
Compounds described herein were tested for ability to bind to RORγ in a cell-free competition assay with commercially available radio-ligand (RL), 25-hydroxy [26,27-^3H]-cholesterol (PerkinElmer, Cat. # NET674250UC), for a ligand binding site on a recombinant RORγ Ligand Binding Domain (LBD) protein expressed as a 6×His-Glutathione-S-Transferase (GST) fusion. […] The plate was shaken at 700 rpm for 20 min and incubated for 10 min at rt, after which 40 μL of poly-Lys YSi SPA beads (PerkinElmer, Cat. # RPNQ0010) were added to achieve 50 μg of the beads per well. The plate was incubated on an orbital shaker for 20 min and then for 10 min without agitation at rt. SPA signal for tritium beta radiation was registered on PerkinElmer Microbeta plate reader. […] The percent inhibition vs. concentration data were fit into a four-parameter model, and IC50 values were calculated from the fit as the concentrations corresponding to the inflection points on the dose-response curves. […]

Sequence of recombinant RORγ Ligand Binding Domain (LBD) protein (P51449 269-508): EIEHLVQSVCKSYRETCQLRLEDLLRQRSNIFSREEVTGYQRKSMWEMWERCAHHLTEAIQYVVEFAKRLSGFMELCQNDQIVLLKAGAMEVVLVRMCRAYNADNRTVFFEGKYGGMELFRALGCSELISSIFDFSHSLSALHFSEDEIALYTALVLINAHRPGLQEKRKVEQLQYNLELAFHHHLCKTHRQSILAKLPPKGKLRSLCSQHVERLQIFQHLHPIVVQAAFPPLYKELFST
Sequence of full-length RORγt in Jurkat cells (P51449 other isoform, or with tags, fused parts or gaps): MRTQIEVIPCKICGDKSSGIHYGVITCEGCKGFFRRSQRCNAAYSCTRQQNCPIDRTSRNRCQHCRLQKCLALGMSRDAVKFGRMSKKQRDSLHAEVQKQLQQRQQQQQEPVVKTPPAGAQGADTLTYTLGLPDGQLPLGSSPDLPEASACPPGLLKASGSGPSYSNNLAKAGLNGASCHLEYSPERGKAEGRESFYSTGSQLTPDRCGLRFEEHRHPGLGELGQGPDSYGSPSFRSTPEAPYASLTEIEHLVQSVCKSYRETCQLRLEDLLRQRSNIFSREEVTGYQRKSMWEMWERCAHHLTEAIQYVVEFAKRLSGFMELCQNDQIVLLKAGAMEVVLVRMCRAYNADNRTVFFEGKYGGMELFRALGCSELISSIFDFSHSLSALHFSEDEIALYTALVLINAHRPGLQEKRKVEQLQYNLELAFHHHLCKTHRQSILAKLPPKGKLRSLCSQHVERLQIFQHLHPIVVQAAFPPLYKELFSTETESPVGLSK

For orientation: IC50 means the concentration needed to halve the response being measured. As a reminder, the Ki is a dissociation constant, usually derived from enzyme kinetics or from competition with a known ligand. In assay [1], `CNS(=O)(=O)c1ccc(CNC(=O)c2ccc3c(c2)nc(C[C@H]2CC[C@H](C(F)(F)F)CC2)n3C2CC2)nc1` [BE-31, 1-cyclopropyl-N-((5-(N-methylsulfamoyl)pyridin-2-yl)methyl)-2-(((1r,4r)-4-(trifluoromethyl)cyclohexyl)methyl)-1H-benzo[d]imidazole-5-carboxamide] gave an IC50 above 1000 nM. Moreover, in assay [2], the Ki is below 100 nM.
For “1-ethyl-N-((R)-1-(4-(ethylsulfonyl)phenyl)-2-hydroxyethyl)-2-(((1s,4S)-4-(trifluoromethyl)cyclohexyl)methyl)-1H-indole-5-carboxamide [IN-16.2]”, the IC50 in assay [1] was above 1000 nM. Further, in assay [2], the Ki is below 100 nM.
Compound `CCn1c(CN2CCC(C(F)(F)F)CC2)cc2cc(C(=O)N[C@@H](CO)c3ccc(S(=O)(=O)CC)cc3)ccc21` [IN-10, (R)-1-ethyl-N-(1-(4-(ethylsulfonyl)phenyl)-2-hydroxyethyl)-2-((4-(trifluoromethyl)piperidin-1-yl)methyl)-1H-indole-5-carboxamide] had a 50% inhibitory concentration (IC50) in assay [1] below 100 nM. In assay [2], the Ki is below 100 nM.
`CCS(=O)(=O)c1ccc(CNC(=O)c2ccc3c(c2)nc(C[C@H]2CC[C@@H](OC)CC2)n3C2CC2)cc1` [BE-46.2, 1-cyclopropyl-N-(4-(ethylsulfonyl)benzyl)-2-(((1s,4s)-4-methoxycyclohexyl)methyl)-1H-benzo[d]imidazole-5-carboxamide] registered an IC50 in assay [1] above 1000 nM. The inhibitory constant (Ki) in assay [2] is below 100 nM.
For the compound `CS(=O)(=O)c1ccc([C@H](CO)NC(=O)c2ccc3c(c2)nc(C[C@H]2CC[C@H](C(F)(F)F)CC2)n3C2CC2)cc1` [BE-32, 1-cyclopropyl-N-((R)-2-hydroxy-1-(4-(methylsulfonyl)phenyl)ethyl)-2-(((1r,4R)-4-(trifluoromethyl)cyclohexyl)methyl)-1H-benzo[d]imidazole-5-carboxamide], in assay [1], the half-inhibitory concentration (IC50) was below 100 nM. Further, the inhibitory constant (Ki) in assay [2] is below 100 nM.
Turning to `CCn1c(OCC2CC(F)(F)C2)nc2cc(C(=O)N[C@@H](CO)c3ccc(S(=O)(=O)CC)cc3)ccc21` [BE-13, (R)-2-((3,3-difluorocyclobutyl)methoxy)-1-ethyl-N-(1-(4-(ethylsulfonyl)phenyl)-2-hydroxyethyl)-1H-benzo[d]imidazole-5-carboxamide], in assay [1], the IC50 is above 1000 nM. Moreover, the Ki in assay [2] is below 100 nM.
Turning to `CS(=O)(=O)c1ccc(CNC(=O)c2ccc3c(c2)nc(C[C@H]2CC[C@H](C(F)(F)F)CC2)n3C2CC2)cc1` [BE-30, 1-cyclopropyl-N-(4-(methylsulfonyl)benzyl)-2-(((1r,4r)-4-(trifluoromethyl)cyclohexyl)methyl)-1H-benzo[d]imidazole-5-carboxamide], the IC50 in assay [1] is below 100 nM. Besides, the Ki in assay [2] is below 100 nM.
The compound `CCn1c(C[C@H]2CC[C@H](C(F)(F)F)CC2)cc2cc(C(=O)NCc3ccc(S(=O)(=O)CC)cc3)ccc21` [IN-17.1, 1-ethyl-N-(4-(ethylsulfonyl)benzyl)-2-(((1r,4r)-4-(trifluoromethyl)cyclohexyl)methyl)-1H-indole-5-carboxamide] displayed a half-maximal inhibitory concentration (IC50) in assay [1] below 100 nM. Also, the Ki in assay [2] was below 100 nM.
`CCS(=O)(=O)c1ccc(CNC(=O)c2ccc3c(c2)nc(C[C@H]2CC[C@@H](C(F)(F)F)CC2)n3C2CC2)cc1` [BE-18.2, 1-cyclopropyl-N-(4-(ethylsulfonyl)benzyl)-2-((cis-4-(trifluoromethyl)cyclohexyl)methyl)-1H-benzo[d]imidazole-5-carboxamide] yielded a half-inhibitory concentration (IC50) in assay [1] above 1000 nM. The Ki in assay [2] was below 100 nM.
For `CCS(=O)(=O)c1ccc(CNC(=O)c2cnc3c(c2)nc(C[C@H]2CC[C@H](C(F)(F)F)CC2)n3C2CC2)cc1` [AB-1.1, 3-cyclopropyl-N-(4-(ethylsulfonyl)benzyl)-2-(((1r,4r)-4-(trifluoromethyl)cyclohexyl)methyl)-3H-imidazo[4,5-b]pyridine-6-carboxamide] the same measures were below 100 nM and below 100 nM.
For the compound `CCS(=O)(=O)c1ccc([C@H](CO)NC(=O)c2ccc3c(c2)nc(Oc2ccc(C(F)(F)F)cc2)n3C2CC2)cc1` [BE-7, (R)-1-cyclopropyl-N-(1-(4-(ethylsulfonyl)phenyl)-2-hydroxyethyl)-2-(4-(trifluoromethyl)phenoxy)-1H-benzo[d]imidazole-5-carboxamide], the IC50 in assay [1] is below 100 nM. The Ki in assay [2] is below 100 nM.
In turn, `CCn1c(Cc2ccc(Cl)cc2)cc2cc(C(=O)N[C@@H](CO)c3ccc(S(=O)(=O)CC)cn3)ccc21` [IN-8, (R)-2-(4-chlorobenzyl)-1-ethyl-N-(1-(5-(ethylsulfonyl)pyridin-2-yl)-2-hydroxyethyl)-1H-indole-5-carboxamide] came in with a half-inhibitory concentration (IC50) in assay [1] of 100 to 1000 nM. In addition, in assay [2], the Ki was below 100 nM.
Take `CCS(=O)(=O)c1ccc(CNC(=O)c2ccc3c(c2)nc(C[C@H]2CC[C@H](C(F)(F)F)CC2)n3C2CC2)nc1` [BE-27.1, 1-cyclopropyl-N-((5-(ethylsulfoyl)pyridin-2-yl)methyl)-2-(((1r,4r)-4-(trifluoromethyl)cyclohexyl)methyl)-1H-benzo[d]imidazole-5-carboxamide]: the IC50 in assay [1] was below 100 nM. Moreover, in assay [2], the Ki is below 100 nM.
`CCS(=O)(=O)c1ccc(CNC(=O)c2ccc3c(c2)nc(CC2CCN(C(=O)OC(C)(C)C)CC2)n3C2CC2)cc1` [BE-49, tert-butyl 4-((1-cyclopropyl-5-((4-(ethylsulfonyl)benzyl)carbamoyl)-1H-benzo[d]imidazol-2-yl)methyl)piperidine-1-carboxylate] gave a 50% inhibitory concentration (IC50) in assay [1] of 100 to 1000 nM. In addition, the inhibitory constant (Ki) in assay [2] is below 100 nM.
As for `CCS(=O)(=O)c1ccc([C@H](CO)NC(=O)c2ccc3c(c2)nc(Oc2ccc(C(F)(F)F)cc2)n3C2CC2)nc1` [BE-70, (R)-1-cyclopropyl-N-(1-(5-(ethylsulfonyl)pyridin-2-yl)-2-hydroxyethyl)-2-(4-(trifluoromethyl)phenoxy)-1H-benzo[d]imidazole-5-carboxamide], the IC50 in assay [1] is below 100 nM. The inhibition constant (Ki) in assay [2] is below 100 nM.
For the compound `CCn1c(OCC2CCC(F)(F)CC2)nc2cc(C(=O)N[C@@H](CO)c3ccc(S(=O)(=O)CC)cc3)ccc21` [BE-12, (R)-2-((4,4-difluorocyclohexyl)methoxy)-1-ethyl-N-(1-(4-(ethylsulfonyl)phenyl)-2-hydroxyethyl)-1H-benzo[d]imidazole-5-carboxamide], the half-maximal inhibitory concentration (IC50) in assay [1] was above 1000 nM. For the same compound, in assay [2], the Ki was below 100 nM.
In turn, “1-ethyl-N-(4-(ethylsulfonyl)benzyl)-2-(((1s,4s)-4-(trifluoromethyl)cyclohexyl)methyl)-1H-indole-5-carboxamide [IN-17.2]” gave an IC50 in assay [1] above 1000 nM. Further, in assay [2], the inhibition constant (Ki) is below 100 nM.
Consider `CCS(=O)(=O)c1ccc([C@H](CO)NC(=O)c2ccc3c(c2)cc(Cc2ccc(C(F)(F)F)cc2)n3C2CC2)nc1` [IN-19, (R)-1-cyclopropyl-N-(1-(5-(ethylsulfonyl)pyridin-2-yl)-2-hydroxyethyl)-2-(4-(trifluoromethyl)benzyl)-1H-indole-5-carboxamide], for which the 50% inhibitory concentration (IC50) in assay [1] is below 100 nM. Also, in assay [2], the Ki was below 100 nM.
`CCS(=O)(=O)c1ccc([C@H](CO)NC(=O)c2ccc3c(c2)nc(COC2CCC(C(F)(F)F)CC2)n3C2CC2)cc1` (single isomer, unassigned) [BE-71.1]: in assay [1], the half-inhibitory concentration (IC50) is below 100 nM. Also, the inhibition constant (Ki) in assay [2] was below 100 nM.
In assay [1], `CCS(=O)(=O)c1ccc(CNC(=O)c2ccc3c(c2)nc(Cc2ccc(C(F)(F)F)cc2)n3CC(F)(F)F)cc1` [BE-37, N-(4-(ethylsulfonyl)benzyl)-1-(2,2,2-trifluoroethyl)-2-(4-(trifluoromethyl)benzyl)-1H-benzo[d]imidazole-5-carboxamide] returned a half-inhibitory concentration (IC50) below 100 nM. The Ki in assay [2] is below 100 nM.
The compound `CCn1c(C[C@H]2CC[C@H](C(F)(F)F)CC2)cc2cc(C(=O)N[C@@H](CO)c3ccc(S(=O)(=O)CC)cc3)ccc21` [IN-16.1, 1-ethyl-N-((R)-1-(4-(ethylsulfonyl)phenyl)-2-hydroxyethyl)-2-(((1r,4R)-4-(trifluoromethyl)cyclohexyl)methyl)-1H-indole-5-carboxamide] displayed an IC50 in assay [1] below 100 nM. The inhibitory constant (Ki) in assay [2] is below 100 nM.
The compound `CCn1c(Oc2ccc(C(F)(F)F)cc2)nc2cc(C(=O)N[C@@H](CO)c3ccc(S(=O)(=O)CC)cc3)ccc21` [BE-8, (R)-1-ethyl-N-(1-(4-(ethylsulfonyl)phenyl)-2-hydroxyethyl)-2-(4-(trifluoromethyl)phenoxy)-1H-benzo[d]imidazole-5-carboxamide] returned a 50% inhibitory concentration (IC50) in assay [1] below 100 nM. For the same compound, in assay [2], the Ki was below 100 nM.
Turning to `CCS(=O)(=O)c1ccc(CNC(=O)c2ccc3c(c2)nc(Cc2ccc(C(F)(F)F)cc2)n3C2CC2)cc1` [BE-36, 1-cyclopropyl-N-(4-(ethylsulfonyl)benzyl)-2-(4-(trifluoromethyl)benzyl)-1H-benzo[d]imidazole-5-carboxamide], in assay [1], the concentration for half-maximal inhibition (IC50) was below 100 nM. Besides, in assay [2], the inhibition constant Ki was below 100 nM.
`CCS(=O)(=O)c1ccc(CNC(=O)c2ccc3c(c2)nc(CN2CCC(C(F)(F)F)CC2)n3CC(C)C)cc1` [BE-53, N-(4-(ethylsulfonyl)benzyl)-1-isobutyl-2-((4-(trifluoromethyl)piperidin-1-yl)methyl)-1H-benzo[d]imidazole-5-carboxamide] gave a half-maximal inhibitory concentration (IC50) in assay [1] below 100 nM. Moreover, the Ki in assay [2] was below 100 nM.
